We go through two compounds from US20160213639A1, “COMPOSITIONS AND METHODS FOR TREATING NON-ALCOHOLIC STEATOHEPATITIS” (MOCHIDA PHARMACEUTICAL CO., LTD., priority 2013, published 2016).

SMILES strings stand for the structures.

For one data set, the system named is CYP450. The settings on record: at free concentrations observed in humans; cited from earlier work.
Data set [1] can be described thus: ADME of 14C-EPA-E in rats (absorption, distribution, metabolites, excretion). The format is in vivo. The method, then:
EPADEL® is a product containing ethyl all-cis-5,8,11,14,17-eicosapentaenoate (EPA-E), one of the n-3 essential fatty acids. The preclinical absorption, distribution, metabolism and excretion (ADME) characteristics of EPA-E have been determined primarily in rats.
After administration of ^14C-EPA-E into the ligated intestine of rats, the residual radioactivity in the intestine at 24 hours was only 4.6% of the administered dose. Radioactivity transferred to the plasma and lymph was mainly detected in the triglyceride (TG) fraction in the early phase after dosing, while distribution to the free fatty acid (FFA) fraction was slight at all timepoints. […] Orally administered EPA-E was primarily incorporated in adrenal gland lipids as cholesterol esters of the fatty acids eicosapentaenoic acid (EPA), docosapentaenoic acid (DPA) and docosahexaenoic acid (DHA).
(§1) Consequently, when EPA-E is administered orally to humans, it would appear that it is well absorbed, even though the unchanged ethyl ester form is not detected, and the free form (EPA) is only detected at a very low level, in the blood. Due to this absorption mechanism of essential fatty acids, the administered EPA-E exists as a blood-constituent fatty acid in the total lipids. In fact, according to the approval package document of Lovaza®, the free form of EPA is undetectable in the circulation (<1 μM) following an oral dose of 4 g of Omacor® (a mixture of the ethyl esters of EPA and DHA) Following oral administration of EPA-E, EPA, DPA and DHA were isolated and identified as metabolites in tissues and plasma. EPA, DPA and DHA were incorporated into TG and PL. Radioactivity was primarily excreted in expired air (44%) after single oral administration at 30 mg/kg EPA-E with minimal excretion in bile and urine (˜3%) and approximately 20% excreted in feces.
Renal excretion was the elimination route for several minor highly polar metabolites (<0.4%), but EPA-E, EPA, DPA or DHA were not detected in the urine. In feces, EPA-E and EPA, evidently derived from the unabsorbed drug, were detected; however, no DPA or DHA was detected in the feces.
In the total lipid fraction of the liver, the radioactivity originated mainly from EPA, DPA and DHA. Thus, it is considered that EPA, DPA and DHA are the predominant metabolites of ^14C-EPA-E in tissues, as constituent fatty acids of the total lipid fraction.

On the set-up of data set [2]: species or system dogs. Particulars: dog, in vivo, po, 30 mg/kg, 1 week. The method, then: as §1
A short description of data set [3]: Hydrolysis in small intestine homogenates, lymph, plasma and liver homogenates. The format is in vitro ADME. Particulars: plasma and liver homogenates of the rat.

Turning to `CC/C=C\C/C=C\C/C=C\C/C=C\C/C=C\CCCC(=O)O` [EPA, eicosapentaenoic acid], the CYP450 inhibition result in the data set on CYP450 was “unlikely to inhibit CYP450”.
Turning to `CC/C=C\C/C=C\C/C=C\C/C=C\C/C=C\CCCC(=O)OCC` [^14C-EPA-E], the “residual radioactivity in the intestine” value in data set [1] (administration into the ligated intestine of rats, at 24 hours) is on record as 4.6 % of the administered dose. The “unchanged EPA-E in plasma or tissues” value in data set [1] (oral administration to the rat) is recorded as “no unchanged EPA-E was found”. Also, the “metabolites in the total lipid fraction of plasma and tissues” value in data set [1] (oral administration to the rat, liver, fat, heart and brain) was “EPA, DPA and DHA were detected as metabolites”. The “distribution of radioactivity in body tissues” value in data set [1] (rats) is “relatively high levels were observed especially in the brown fat, adrenal, liver and pancreas”. Moreover, in data set [1] (single oral dose 30-1000 mg/kg, rats), the absorption entry is listed as “well-absorbed, mainly through the lymphatic route”. Further, in data set [2], the “radioactivity excreted in the urine” value was 1.0% and the “radioactivity recovered in the feces” value came to 19.2%. Further, in data set [3], the hydrolysis result was “hydrolyzed rapidly”.
